Data taken from patent US20170168056A1, “METHODS AND COMPOSITIONS FOR DETECTING AND MODULATING CANCER CELLS” (Massachusetts Institute of Technology, priority 2015, published 2017).

Columns and labels:
[1] = tested on: MDA-MB-231 xenograft tumors; test: Xenograft tumor growth in NOD-SCID mice with chemotherapy treatment; format: in vivo, mouse; conditions: three doses Taxol/paclitaxel 10 mg/kg or two doses Doxorubicin 5 mg/kg; for growth of control tumors compared to vehicle: GFP (Control) tumors
Method: Mena or Mena^INV expression blocks Taxol efficacy on tumors in treated animals. Mice with xenograft tumors were generated by injection of MDA-MB-231 cells expressing GFP (Control), GFP-Mena (Mena) or GFP-Mena^INV (Mena^INV) into the mammary fat pads of NOD-SCID mice. […] Tumor size was measured before and after treatment. […] These in vivo findings are consistent with the results obtained in the in vitro data, and indicate that Men/Mena^INV promotes resistance to Taxol as judged by tumor growth.
Xenograft tumor generation and in vivo chemotherapy treatment. All animal experiments were approved by the MIT Division of Comparative Medicine. 2 million MDA-MB-231 cells expressing different MENA isoforms (in PBS and 20% collagen I) were injected into the 4th right mammary fat pad of six week-old female NOD-SCID mice (Taconic). When the tumors reached 1 cm in diameter, mice were treated every five days with either three doses of paclitaxel at 10 mg/kg in 1% DMSO, 3% PEG (MW 400), 1% Tween 80 in PBS by intra-peritoneal injection. In parallel, mice were treated with only in 1% DMSO, 3% PEG (MW 400), 1% Tween 80 in PBS as a vehicle control. One day after the last injection, tumors were measured and mice were use for intravital imaging and then sacrificed. Their tumors and lungs were fixed in 10% formalin overnight, their bone marrow were collected using PBS and cultured in DMEM with 10% fetal bovine serum. The number of tumor cell colonies in cultured bone morrow was counted 1 month after collection. The number of metastasis in each lobe of the lung were counted from lung H&E stained sections visualized by light microscopy and counted by two blinded individuals. Each tumor group contained 3-5 mice.
MENA isoform expression is associated with increased tumor growth in vivo during paclitaxel treatment. Whether MENA-associated paclitaxel resistance could also be observed in vivo was examined. Xenograft tumors were generated by injecting MDA-MB-231 cells expressing MENA isoforms into the mammary fat pads of NOD-SCID mice. Mice were treated with paclitaxel once tumors reached 1 cm in diameter (FIG. 30A).

MDA-MB-231 cells [2] = test: Time-lapse microscopy of cell division; format: cell-based, human; conditions: for increase in time spent in cell division: 10 nM paclitaxel vs vehicle
Method: (§1) In vitro imaging. Glass bottom dishes were coated with Co11agen at 0.1 mg/mL diluted in PBS for 1 hour at 37° C. Cells expressing different MENA isoform were treated with paclitaxel at 1, 10 or 100 nM or vehicle and immediately plated on the glass bottom dishes. 30 minutes later, cells were imaged overnight, with one image acquired every 10 minutes for 16 hours on a Nikon spinning disk with a 20× objective and an Andor/NeoZyla camera. Individual cells were manually tracked using ImageJ and Manual Tracking plug-in. Data were analyzed using the chemotaxis tool developed by IBIDI. For analysis of time spent in cell division, the time between when the mother cell first rounds up, to when both daughter cells have spread out on substrate was measured. The percentage of successful cell divisions was quantified by counting the number of cell divisions that lead to two surviving daughter cells. Data are pooled from at least 50 cells tracked in three independent experiments.
One of the key steps in paclitaxel-induced cell death is cell arrest in the G2/M phases of the cell cycle. […] Time-lapse microscopy was performed to study the cell division phenotypes in more detail, and imaged cells expressing MENA isoforms while adherent on collagen (FIGS. 35D, 35E, 35F).

Mena, Mena^INV = test: Mena and Mena^INV immunofluorescence in Control tumors from treated mice; format: in vivo, mouse; conditions: tissue sections of Control tumors from treated mice
Method: (§2) Taxol treatment induces increased Mena protein expression in vitro and in vivo. As high level of Mena or Mena^INV expression correlated with low response to Taxo, we hypothesized that Taxol treatment might affect Mena expression. […]. After 72 h of treatment with the drug, the expression level of Mena was 70% higher than in vehicle-treated cells.
Immunohistochemistry for Examples 16-22. Tumors dissected from NOD/SCID mice were fixed in 10% buffered formalin and embedded in paraffin. Tissue sections (5 μm thick) were deparaffinized followed by antigen retrieval using Citra Plus solution (Biogenex). After treatment with 3% H2O2, sections were blocked with serum, incubated with primary antibodies overnight at 4° C. and fluorescently labeled secondary antibodies at room temperature for 2 hours. Sections were stained using anti-MENA (1:500), biotinylated anti-MENA^INV (1:500), anti-CC3 (1:200), anti-Ki67 (1:200) and DAPI. Fluorochromes on secondary antibodies included AlexaFluor 488, 594 or 647 (Jackson Immunoresearch). Sections were mounted in Fluoromount mounting media and imaged at room temperature. […]
Paclitaxel treatment selects for high MENA expression in vitro and in vivo. […] First, endogenous MENA expression by Western Blot in 5 breast cancer cell lines that were exposed to 100 nM of paclitaxel or a vehicle control were analyzed (FIG. 33A).

MDA-MB-231 cells [3] = test: In vitro imaging of cell velocity on collagen; format: cell-based, human; conditions: 231-Control, 231-MENA, 231-MENA^INV; paclitaxel 1, 10 or 100 nM
Method: as §1
MENA and MENA^INV drive increased cell motility and metastasis during tumor progression. Therefore, whether MENA isoform expression impacts cell migration and dissemination after paclitaxel treatment was examined.

Mena = Mena expression in cultured cells after taxane treatment (Western blot, FACS of GFP); format: cell-based, human
Method: as §2
Western blot. Cells were lysed in 25 mM Tris, 150 mM NaCl, 10% glycerol, 1% NP 40 and […] EDTA with a protease Mini-complete protease inhibitors (Roche) and a phosphatase inhibitor cocktail (PhosSTOP, Roche) at 4° C. for 20 minutes. Protein lysates were separated by SDS-PAGE, transferred to a nitrocellulose membrane and blocked with Odyssey Blocking Buffer (LiCor). Membranes were incubated with primary antibody overnight at 4° C. and Licor secondary antibodies at room temperature for 1 hour. Protein level intensity was measured with Image J.
Paclitaxel treatment selects for high MENA expression in vitro and in vivo. The Examples so far indicate that increased MENA or MENA^INV expression levels are associated with reduced responses to paclitaxel. The effect of paclitaxel treatment on levels of MENA expression in cell populations in vitro and in vivo was examined. First, endogenous MENA expression by Western Blot in 5 breast cancer cell lines that were exposed to 100 nM of paclitaxel or a vehicle control were analyzed (FIG. 33A).

CC(=O)O[C@H]1C(=O)[C@@]2(C)[C@H]([C@H](OC(=O)c3ccccc3)[C@]3(O)C[C@H](OC(=O)[C@H](O)[C@@H](NC(=O)c4ccccc4)c4ccccc4)C(C)=C1C3(C)C)[C@]1(OC(C)=O)CO[C@@H]1C[C@@H]2O [paclitaxel]
growth of control tumors compared to vehicle [1]: significantly decreased the growth of 231-Control tumors | growth of control tumors compared to vehicle ([1]; listed as Taxol): significantly decreased growth of control tumors | growth / response of Mena or Mena^INV tumors ([1]; Mena or Mena^INV expressing tumors): unaffected | decrease in the number of successful divisions (MDA-MB-231 cells [2]; 231-Control cells, 10 nM paclitaxel): 40% | increase in time spent in cell division (MDA-MB-231 cells [2]; 231-Control cells): four-fold | increase in time spent in cell division (MDA-MB-231 cells [2]; 231-MENA and 231-MENA^INV cells): two-fold | successful cell divisions (MDA-MB-231 cells [2]; paclitaxel treated 231-MENA and 231-MENA^INV cells): over 90% | Mena and Mena^INV levels in Control tumors compared to vehicle (Mena, Mena^INV): significant increases in total MENA levels | Mena and Mena^INV levels in Control tumors compared to vehicle (Mena, Mena^INV; listed as Taxol): increase in expression of both global Mena levels and the Mena^INV isoform | cell velocity in vitro (MDA-MB-231 cells [3]): decreased velocity | endogenous MENA expression by Western Blot (Mena; 5 breast cancer cell lines, 100 nM paclitaxel, 72 hours, vs vehicle): some cell lines (MDA-MB-231 and MDA-MB-175VII) showed increased MENA expression | FACS analysis of GFP expression levels after taxane treatment (Mena; MDA-MB-231 populations expressing GFP, GFP-MENA or GFP-MENA^INV): selected for high-Mena^INV-GFP expressing cells | expression level of Mena higher than in vehicle-treated cells (Mena; after 72 h of treatment): 70%
